# Like-named read-outs stand apart in the source and are kept apart here.
# Tests used:
# [1] = test system: MKN45 gastric cancer cell line; assay: Assay of inhibitory effect on cell proliferation (CellTiter-Glo); format: cell-based; conditions: Homo sapiens, MKN-45, 72 h, read-out: MKN45 cell IC50
# Excerpt: Assay Example 2: Assay of Inhibitory Effect on Cell Proliferation
# 1. cell culture: DMEM medium, fetal bovine serum, DPBS
# 2. cell line: MKN45 gastric cancer cell line
# 3. detection reagent: live cell detection kit CellTiter-Glo
# 4. other main materials and reagents: compound dilution plate, middle plate, detection plate, DMSO
# The content of ATP directly reflects the number and state of cells. By quantitation of ATP, the number of living cells can be detected. The living cell detection kit contains luciferase and its substrate. Through the participation of ATP, the luciferase can catalyze the substrate to emit a stable light signal. The number of ATP in the cells was determined by detecting the intensity of the signal. The light signal was directly proportional to the number of ATP in the cells, while ATP was positively correlated with the number of living cells, so that the proliferation of cells can be detected. The test plate was analyzed using Envision from PE Inc.
# 1. Preparation of the Cell Plate
# The MKN45 cells were seeded into a 384-well plate with 200 cells per well. The cell plate was placed in a carbon dioxide incubator and incubated overnight.
# 2. Preparation of Compounds
# Compounds were subject to a 5-fold serial dilution with Echo to obtain nine concentrations, in duplicate.
# 3. Treatment of Cells with Compounds
# The compounds were transferred to the cell plate at an initial concentration of […]. The cell plate was placed in a carbon dioxide incubator and incubated for three days.
# A Promega CellTiter-Glo reagent was added to the cell plate and incubated at room temperature for 10 minutes to stabilize the luminescence signal. A PerkinElmer Envision multi-label analyzer was used for reading.
# [2] = test system: Hs746t gastric cancer cells; assay: Drug efficacy in a model with subcutaneous xenograft tumor of Hs746t gastric cancer cells; format: in vivo, BALB/c nude mice; conditions: for Tumor volume (Day 0): Day 0, Mean ± SEM; for Tumor volume (Day 20): Day 20, Mean ± SEM
# Method: Assay Example 4: Assay of Drug Efficacy in a Model with Subcutaneous Xenograft Tumor of Hs746t Gastric Cancer Cells
# Human gastric cancer Hs746t cells were cultured in vitro in monolayer. The culture conditions were DMEM medium plus 10% fetal bovine serum, 100 U/mL penicillin and 100 U/mL streptomycin, 37° C., 5% CO2 incubator. The passaging was carried out by conventional digestion with trypsin-EDTA twice a week. When the cell saturation was 80%-90%, and the number met the requirements, the cells were collected, counted, and inoculated.
# (§1) BALB/c nude mice, male, 6-8 weeks old, weighted 18-22 grams.
# 0.2 mL (2×10^6, cells:Matrigel=1:1) of HS 746T cells were subcutaneously inoculated on the right back of each mouse. When the average tumor volume reached about 100-150 mm^3, administration to each group was started.
# (§2) Assay index: The assay index is to investigate whether tumor growth is inhibited, delayed or cured. Tumor diameter was measured twice a week with a vernier caliper. The calculation formula of tumor volume is: V=0.5a×b^2, wherein a and b represent the long and short diameters of the tumor, respectively. The anti-tumor efficacy (TGI) of the compound was evaluated by T-C (day) and T/C (%).
# Assay results: See Table 4.
# [3] = test system: MKN45 gastric cancer cells; assay: Drug efficacy in a model with subcutaneous xenograft tumor of MKN45 gastric cancer cells; format: in vivo, BALB/c nude mice; conditions: day 14 after administration; for Tumor volume (Day 14): Mean ± SEM
# Method: Assay Example 3: Assay of Drug Efficacy in a Model with Subcutaneous Xenograft Tumor of MKN45 Gastric Cancer Cells
# MKN45 cells were cultured in vitro in monolayer. The culture conditions were RPMI1640 medium plus 10% heat-inactivated fetal bovine serum, 1% penicillin-streptomycin, 37° C., and 5% CO2. The passaging was carried out by conventional digestion with trypsin-EDTA twice a week. When the cells were in the exponential growth phase, the cells were collected, counted, and inoculated.
# as §1
# 0.2 ml of a suspension containing 5×10^6 MKN45 cells was inoculated subcutaneously on the right back of each mouse. When the average volume of the tumor reached about 160 mm^3, administration to each group was started.
# as §2, with “index: the” for “index: The”, “whether the” for “whether”
# Assay results: See Table 3.
# MHCC97H cell = conditions: read-out: MHCC97H cell IC50; cited from earlier work
# [4] = three days incubation, CellTiter-Glo
smiles,measurement,setting,value
"CCOc1ccn(-c2ccc(F)cc2)c(=O)c1C(=O)Nc1ccc(Oc2ccnc(N)c2Cl)c(F)c1 [BMS777607, reference compound]",IC50,[1]; [4],436 nM
same,TGI,[2]; 4.5 mpk,27.61%
same,Tumor volume (Day 0),[2]; 4.5 mpk,127 ± 11 mm^3
same,T/C (Day 20),[2]; 4.5 mpk,73.58%
same,Tumor volume (Day 20),[2]; 4.5 mpk,1872 ± 355 mm^3
CC(C)n1cc(C(=O)Nc2ccc(Oc3ccnc(N)c3Cl)c(F)c2)c(=O)n(-c2ccc(F)cc2)c1=O [Example 1],IC50,[1],54 nM
same,T/C,[3],16.5%
same,TGI,[3],95.1%
same,Tumor volume (Day 14),[3],218 ± 31 mm^3
C=CCn1cc(C(=O)Nc2ccc(Oc3ccnc(N)c3Cl)c(F)c2)c(=O)n(-c2ccc(F)cc2)c1=O [Example 2],IC50,[1],78 nM
Nc1nccc(Oc2ccc(NC(=O)c3cn(CC4CC4(F)F)c(=O)n(-c4ccc(F)cc4)c3=O)cc2F)c1Cl (stereo not shown) [Example 3],IC50,[1]; [4],27 nM
Nc1nccc(Oc2ccc(NC(=O)c3cn(CC4CC4)c(=O)n(-c4ccc(F)cc4)c3=O)cc2F)c1Cl [Example 5],IC50,[1],11 nM
same,T/C,[3],15.3%
same,TGI,[3],96.9%
same,Tumor volume (Day 14),[3],196 ± 17 mm^3
same,TGI,[2]; 4.5 mpk,104.43%
same,Tumor volume (Day 0),[2]; 4.5 mpk,126 ± 10 mm^3
same,T/C (Day 20),[2]; 4.5 mpk,0.78%
same,Tumor volume (Day 20),[2]; 4.5 mpk,20 ± 8 mm^3
same,TGI,[2]; 9 mpk,105.01%
same,Tumor volume (Day 0),[2]; 9 mpk,127 ± 10 mm^3
same,T/C (Day 20),[2]; 9 mpk,0.00%
same,Tumor volume (Day 20),[2]; 9 mpk,0 ± 0 mm^3
CC(C)Cn1cc(C(=O)Nc2ccc(Oc3ccnc(N)c3Cl)c(F)c2)c(=O)n(-c2ccc(F)cc2)c1=O [Example 8],IC50,[1]; [4],374 nM
Nc1nccc(Oc2ccc(NC(=O)c3cn(CC(F)F)c(=O)n(-c4ccc(F)cc4)c3=O)cc2F)c1Cl [Example 9],IC50,[1],365 nM
Cc1[nH]c(=O)n(-c2ccc(F)cc2)c(=O)c1C(=O)Nc1ccc(Oc2ccnc(N)c2Cl)c(F)c1 [Example 11],IC50,[1],240 nM
Nc1nccc(Oc2ccc(NC(=O)c3c4n(c(=O)n(-c5ccc(F)cc5)c3=O)CCC4)cc2F)c1Cl [Example 12],IC50,[1]; [4],315 nM
O=C(Nc1ccc(Oc2ccnc(NC(=O)N3CCOCC3)c2)c(F)c1)c1cn(CC2CC2)c(=O)n(-c2ccc(F)cc2)c1=O [Example 13],IC50,[1],38 nM
N#Cc1c(Oc2ccc(NC(=O)c3cn(CC4CC4)c(=O)n(-c4ccc(F)cc4)c3=O)cc2F)ccnc1N [Example 14],IC50,[1],30 nM
NC(=O)Nc1cc(Oc2ccc(NC(=O)c3cn(CC4CC4)c(=O)n(-c4ccc(F)cc4)c3=O)cc2F)ccn1 [Example 16],IC50,[1],50.7 nM
CN(C)C(=O)Nc1cc(Oc2ccc(NC(=O)c3cn(CC4CC4)c(=O)n(-c4ccc(F)cc4)c3=O)cc2F)ccn1 [Example 17],TGI,[2]; 1.5 mpk,74.16%
same,Tumor volume (Day 0),[2]; 1.5 mpk,127 ± 12 mm^3
same,T/C (Day 20),[2]; 1.5 mpk,30.68%
same,Tumor volume (Day 20),[2]; 1.5 mpk,780 ± 195 mm^3
same,TGI,[2]; 4.5 mpk,104.82%
same,Tumor volume (Day 0),[2]; 4.5 mpk,127 ± 13 mm^3
same,T/C (Day 20),[2]; 4.5 mpk,0.15%
same,Tumor volume (Day 20),[2]; 4.5 mpk,4 ± 2 mm^3
same,TGI,[2]; 9 mpk,105.02%
same,Tumor volume (Day 0),[2]; 9 mpk,127 ± 9 mm^3
same,T/C (Day 20),[2]; 9 mpk,0.00%
same,Tumor volume (Day 20),[2]; 9 mpk,0 ± 0 mm^3
O=C(Nc1ccc(Oc2ccnc(NC(=O)N3CCC3)c2)c(F)c1)c1cn(CC2CC2)c(=O)n(-c2ccc(F)cc2)c1=O [Example 18],IC50,[1],12.1 nM
O=C(Nc1ccc(Oc2ccnc(NC(=O)N3CCCC3)c2)c(F)c1)c1cn(CC2CC2)c(=O)n(-c2ccc(F)cc2)c1=O [Example 20],IC50,[1],29.1 nM
"Cc1ccc(C(=O)Nc2ccc(Oc3cc4cnn(C)c4cc3-c3cn[nH]c3)c(F)c2)c(=O)n1-c1ccc(F)cc1 [LY2801653, reference compound]",TGI,[2]; 4.5 mpk,101.62%
same,Tumor volume (Day 0),[2]; 4.5 mpk,127 ± 12 mm^3
same,T/C (Day 20),[2]; 4.5 mpk,3.45%
same,Tumor volume (Day 20),[2]; 4.5 mpk,88 ± 13 mm^3
CN1CCC(COc2cnc(-c3cccc(Cn4nc(-c5cccc(C#N)c5)ccc4=O)c3)nc2)CC1 [Tepotinib],IC50,MHCC97H cell,6.2 nM

# Source: US11623923B2, “Uracil compound as c-MET/AXL inhibitor” (MEDSHINE DISCOVERY, INC., priority 2017, dated 2023)
